Common to all, as to type: cell-based
The test system of test [1] is Human keratinocyte cells. Briefly: Stimulation of hydrogen peroxide production, CM-H2DCFDA fluorescence. The settings on record: 0.03% positive control. On the procedure:
Human keratinocyte cells were seeded in assay plates at identical densities and incubated for 48 hours at 37° C. with 5% CO2. […] Cells were treated with galvanic particulates or zinc or copper metal powders alone over increasing amounts of time. Treatment of control wells with 0.03% hydrogen peroxide served as a positive control. Hydrogen peroxide production was quantitated using a fluorescent plate reader set at wavelengths 485 excitation/530 emission. The results are depicted in Tables 17 and 18.

Test [2] has as its system Human T-cells stimulated with PHA. Description: Human T-cell cytokine release stimulated with PHA. The settings on record: 100 ug/ml, 10 μg/mL PHA, 48-hour incubation; for Cytokine Release Percent (%) Reduction: IL-2. The method, then: Human T-cells were collected from a healthy adult […] via leukopheresis. The T-cells were isolated from peripheral blood via Ficol gradient, and the cells were adjusted to a density of 1×10^6 cells/mL in serum free lymphocyte growth medium (ExVivo-15, Biowhittaker, Walkersville, Md.). Human T-cells were stimulated with 10 μg/mL PHA in the presence or absence of test compounds following published method (Hamamoto Y., et al. Exp Dermatol 2:231-235, 1993). Following a 48-hour incubation at 37° C. with 5% CO2, supernatant was removed and evaluated for cytokine content using commercially available multiplex cytokine detection kit.

The test system of test [3] is MRSA. Description: Sustained efficacy, zone of inhibition on day 1 and after transfer to new plate on day 2. The settings on record: 1% in agar disc. The method, then:
(§1) Agars discs containing either galvanic particulates as described in Example 1(a) or zinc acetate at 1% were placed on TSA agar surface inoculated with about 6 log CFU of MRSA or C. albicans and incubated at 37° C. for 24 hr (day-1).

Test [4] concerns C. albicans. Described as above. The settings on record: 1% in agar disc. The method, then:
as §1

Test [5] relates to MRSA. Briefly: Agar disc microwell assay, log reduction by plate count. The settings on record: about 6 log CFU in saline, 37° C., 200 rpm. The method, then: (§2) Agar discs containing copper-zinc galvanic particulates from Example 1(a) or zinc acetate at a concentration of 0.1%, 0.5%, or 1% were exposed to about 6 log CFU of MRSA or C. albicans in saline in microwell plate and incubated at 37° C. and 200 rpm for 24 hrs. Plate count was performed to enumerate the viable microorganisms after the incubation. Log reduction was defined as the log difference of the inoculum before and after the incubation with the test articles (e.g., a log reduction of 6 for the inoculum of 6 log means all the inoculum were killed, and a log reduction of 3 for the inoculum of 6 log means […] of the inoculum were killed).
(§3) Agar discs containing 0.1% copper coated zinc galvanic particulates from Example 1(a) or zinc acetate at 1% or copper acetate at 0.1% were exposed to about 6 log CFU of MRSA or C. albicans in saline in microwell plates, and incubated at 37° C., 200 rpm for 24 hr.
(§4) Plate count was performed to enumerate the viable microorganisms after the incubation. Log reduction was defined as the log difference of the inoculum before and after the incubation with the test articles.

In test [6] the test system is C. albicans. The test is described as above. The settings on record: about 6 log CFU in saline, 37° C., 200 rpm. On the procedure:
as §2, §3, §4

The subject of test [7] is MRSA. Description: Zone of inhibition testing versus copper acetate and zinc acetate. The settings on record: about 6 log CFU, 37° C., 24 hr. On the procedure:
(§5) Zone of inhibition testing was performed on agar discs containing copper-zinc galvanic particulates from Example 1(a) at 0.5%, Zn acetate at 0.5%, and Cu acetate at 0.1%. The discs were placed on TSA agar surface, inoculated with about 6 log CFU of MRSA or C. albicans, and incubated at 37° C. for 24 hr.

For test [8], the system named is C. albicans. The description is as above. The settings on record: about 6 log CFU, 37° C., 24 hr. On the procedure:
as §5

[9] abbreviates: same disc moved to newly inoculated TSA plate, 24 hr (day-2).
The mark [10] stands for this setting: Table 2, test material 0.10% in agar disc, 24 hrs.
Setting [11] is: Table 2, test material 0.50% in agar disc, 24 hrs.
Setting [12] is: Table 2, test material 1.00% in agar disc, 24 hrs.
[13] abbreviates: Table 4, 1% in agar disc, 24 hr.
The mark [14] stands for this setting: Table 4, 0.1% in agar disc, 24 hr.

This note sets out measurements from US20130295150A1, “ELECTRICITY-GENERATING PARTICULATES AND THE USE THEREOF” (Johnson & Johnson Consumer Companies, Inc., priority 2007, published 2013).

In the case of `OO` [Example H2O2, hydrogen peroxide], in test [1], the “Hydrogen peroxide production (fluorescence), 30 Minutes” value is on record as 416.6 ± 61.3; the “Hydrogen peroxide production (fluorescence), 60 Minutes” value worked out at 591.4 ± 82.7; the “Hydrogen peroxide production (fluorescence), 200 Minutes” value turned out to be 1117.5 ± 153.8; the “Hydrogen peroxide production (fluorescence), 240 Minutes” value was determined as 1214.8 ± 149.7. Besides, the “Hydrogen peroxide production (fluorescence), Baseline” value in test [1] turned out to be 98.1 ± 4.4.
In the case of `C[C@]12CCC(=O)C=C1CC[C@@H]1[C@@H]2[C@@H](O)C[C@@]2(C)[C@H]1CC[C@]2(O)C(=O)CO` [Hydrocortisone], in test [2], the “Cytokine Release IL-2” value amounted to 7.69 ± 5.64 pmol/mL and the “Cytokine Release Percent (%) Reduction” value was 98.6%.
Consider `CC(=O)[O-].CC(=O)[O-].[Zn+2]` [Zinc Acetate, zinc acetate], for which the “zone of inhibition, day 1” value in test [3] (37° C., 24 hr (day-1)) was “produce a zone of inhibition”; in test [4] (37° C., 24 hr (day-1)), “produce a zone of inhibition”. For the same compound, the “zone of inhibition, day 2” value in test [3] (setting [9]) and in test [4] (setting [9]) was “did not show any inhibition” in each case. For the same compound, the “LOG REDUCTION MRSA” value in test [5] (setting [10]) is 1.7; in test [5] (setting [11]), 3.2; in test [5] (setting [12]), 5.1; in test [5] (setting [13]) it was 5.1. The “LOG REDUCTION C. albicans” value is 2.2 in test [6] (setting [10]), 2.9 in test [6] (setting [11]), 4.7 in test [6] (setting [12]) and 4.7 in test [6] (setting [13]). Moreover, the zone of inhibition entry in test [7] (0.5% in agar disc on TSA agar) is “smaller zone of inhibition, approximately one half the radius”; in test [8] (0.5% in agar disc on TSA agar) it was “smaller zone of inhibition, approximately one half the radius”.
For the compound `[Cl-].[Cl-].[Zn+2]` [Zinc Chloride], in test [2], the “Cytokine Release IL-2” value is 566.3 ± 20.6 pmol/mL and the “Cytokine Release Percent (%) Reduction” value is listed as −0.6%.
For copper acetate, in test [5] (setting [14]), the “LOG REDUCTION MRSA” value was 0.2. Moreover, the “LOG REDUCTION C. albicans” value in test [6] (setting [14]) is on record as 0.3. Moreover, the zone of inhibition entry in test [7] (0.1% in agar disc on TSA agar) was “did not show any visible zone of inhibition”. For the same compound, in test [8] (0.1% in agar disc on TSA agar), the zone of inhibition result was “did not show any visible zone of inhibition”. Further, in test [2], the “Cytokine Release IL-2” value worked out at 312.9 ± 96.8 pmol/mL and the “Cytokine Release Percent (%) Reduction” value was determined as 44.4%.
